Several values for one entry are separate records, joined by “and”; a condition that tells them apart may be missing. Equal entries are not always repeated. After the bases stand the sugars from the 5' end (letter, count) and the backbone: PS all phosphorothioate, else s phosphorothioate and o phosphodiester by linkage. Methylation of C is not given here. k = constrained ethyl (cEt); d = 2'-deoxy (DNA)

Results on 99 sequences are retold here after the OligoGym collection.

The series concerns the target MALAT1. The following applies: ASO, A431, 0.005 µM.
For CCAGTAGGCCAGACCA (sugars k3 d10 k3, PS), the target mRNA inhibition was determined as 13%.

With TATTTCGGCTTCTTTT (sugars k3 d10 k3, PS), the target mRNA inhibition is 47% and 65%.

Consider ACACACTACCATATCC (sugars k3 d10 k3, PS), for which the target mRNA inhibition was -3%.

On to GTTACCAATAATTTCC (sugars k3 d10 k3, PS), for which the target mRNA inhibition is 71% and 50%.

As for GGAGAGGCCAGTTGCG (sugars k3 d10 k3, PS), the target mRNA inhibition was -10%.

GACAAGGCAGTTATAT (sugars k3 d10 k3, PS): the target mRNA inhibition amounted to 1%.

Regarding GATACCTGTCTGAGGC (sugars k3 d10 k3, PS), the target mRNA inhibition was 33%.

With AACTTCAACATTTGGC (sugars k3 d10 k3, PS), the target mRNA inhibition came to 56%.

Take ACAGGAACAAGTCCTA (sugars k3 d10 k3, PS): the target mRNA inhibition stood at 10%.

Take CACCCAGAAGTGTTTA (sugars k3 d10 k3, PS): the target mRNA inhibition was -4%.

Take GAGTCATTTGCCTTTA (sugars k3 d10 k3, PS): the target mRNA inhibition was 73% and 48%.

GTCAGGGACACACCCA (sugars k3 d10 k3, PS): the target mRNA inhibition is -11%.

Take CCTGTGGTGGTCTGAT (sugars k3 d10 k3, PS): the target mRNA inhibition was 54%.

In the case of CGTATTTATAGACGGA (sugars k3 d10 k3, PS), the target mRNA inhibition is -9%.

On to GCACTGGTACACCCAG (sugars k3 d10 k3, PS), for which the target mRNA inhibition was -9%.

Consider AGACAAGATTCATGAG (sugars k3 d10 k3, PS), for which the target mRNA inhibition was found to be 50%.

On to ACAGCGGTACACTCCT (sugars k3 d10 k3, PS), for which the target mRNA inhibition was determined as 42%.

For TCCCCCCCAAGATTGC (sugars k3 d10 k3, PS), the target mRNA inhibition is -3%.

As to GAGGCAAGTCCTCATT (sugars k3 d10 k3, PS), the target mRNA inhibition turned out to be 11%.

As to GGCCTACTCAAGCTCT (sugars k3 d10 k3, PS), the target mRNA inhibition amounted to 14%.

TCCCCTTCAAGCACCG (sugars k3 d10 k3, PS): the target mRNA inhibition came to 19%.

Take ACATAGTTCAACCCAC (sugars k3 d10 k3, PS): the target mRNA inhibition is 18%.

CAAGATTCATGAGTAT (sugars k3 d10 k3, PS): the target mRNA inhibition amounted to 34%.

In the case of ACAAGTCCTACAATTT (sugars k3 d10 k3, PS), the target mRNA inhibition is 31%.

With TTAGAGGGCCTCTATT (sugars k3 d10 k3, PS), the target mRNA inhibition came out at 3%.

In the case of CTTCTCTAACCCAGTT (sugars k3 d10 k3, PS), the target mRNA inhibition came to 15%.

In the case of TAACCAACTTCCCCTT (sugars k3 d10 k3, PS), the target mRNA inhibition was 16%.

Take AAACGAATTCAGGGTG (sugars k3 d10 k3, PS): the target mRNA inhibition was 23%.

GCATGTAAGAATTAAG (sugars k3 d10 k3, PS): the target mRNA inhibition was 28%.

As to CAATTTAGAGCTTCTC (sugars k3 d10 k3, PS), the target mRNA inhibition was -12%.

Turning to CACAACAATTTAGAGC (sugars k3 d10 k3, PS), the target mRNA inhibition is -17%.

Take CTCTGCATCTAGGCCA (sugars k3 d10 k3, PS): the target mRNA inhibition stood at 40%.

For the sequence TTAAAAAGGCTCGATG (sugars k3 d10 k3, PS), the target mRNA inhibition is 21%.

For TATAGCTTGACAAGCA (sugars k3 d10 k3, PS), the target mRNA inhibition was 19%.

For the sequence CTGGGTCAGCTGTCAA (sugars k3 d10 k3, PS), the target mRNA inhibition was determined as 33%.

As to TCCAGCATAAAGCTGA (sugars k3 d10 k3, PS), the target mRNA inhibition was -9%.

ATTATACATCAAGGAT (sugars k3 d10 k3, PS): the target mRNA inhibition was determined as 17%.

On to TATAAGGTCAATAGTG (sugars k3 d10 k3, PS), for which the target mRNA inhibition is 38%.

With TAGCAGCGGGATCAGA (sugars k3 d10 k3, PS), the target mRNA inhibition was 32%.

On to TATTTTAAACGGGTCA (sugars k3 d10 k3, PS), for which the target mRNA inhibition turned out to be 3%.

As for AGATTAAAGTGTGATA (sugars k3 d10 k3, PS), the target mRNA inhibition came to 27%.

As for AAGATAGCAGCACAAC (sugars k3 d10 k3, PS), the target mRNA inhibition was 12%.

As to AGGCTTTAAATGACGC (sugars k3 d10 k3, PS), the target mRNA inhibition is -11%.

For TAAATAAGGAGACAGC (sugars k3 d10 k3, PS), the target mRNA inhibition turned out to be 38%.

In the case of TGTAGTTAATGTCAGC (sugars k3 d10 k3, PS), the target mRNA inhibition is 67% and 42%.

On to TAGGCTTTAAATGACG (sugars k3 d10 k3, PS), for which the target mRNA inhibition turned out to be 26%.

On to TCAGTACGAAACTCCC (sugars k3 d10 k3, PS), for which the target mRNA inhibition is 41%.

Regarding CACCTTCCGCCGCCTC (sugars k3 d10 k3, PS), the target mRNA inhibition came out at 28%.

With CTGAGTGAAGTGTACT (sugars k3 d10 k3, PS), the target mRNA inhibition is 48%.

AAAAGCTTGTTCACCT (sugars k3 d10 k3, PS): the target mRNA inhibition was 21%.

For CTACTGGCTGCATCGA (sugars k3 d10 k3, PS), the target mRNA inhibition was 54%.

Consider ATGAAATGCCTCTGCA (sugars k3 d10 k3, PS), for which the target mRNA inhibition is 13%.

In the case of TACTTAAATTACTAGC (sugars k3 d10 k3, PS), the target mRNA inhibition is 28%.

In the case of TACTCTAATCACTGTC (sugars k3 d10 k3, PS), the target mRNA inhibition was 15%.

For CCTGCGACTTGCTCCC (sugars k3 d10 k3, PS), the target mRNA inhibition came out at 20%.

For the sequence CCCCAACTAAACATAC (sugars k3 d10 k3, PS), the target mRNA inhibition is 26%.

Take ACCTGGGCTCCCGGAG (sugars k3 d10 k3, PS): the target mRNA inhibition amounted to 19%.

Take GTTCAAGTGGCCTTTT (sugars k3 d10 k3, PS): the target mRNA inhibition came out at 22%.

Regarding GTACTATCCCATCACT (sugars k3 d10 k3, PS), the target mRNA inhibition was 33%.

On to TCACTGCAAGGTCTCA (sugars k3 d10 k3, PS), for which the target mRNA inhibition came to 48%.

With GATATTTAAGAACTCC (sugars k3 d10 k3, PS), the target mRNA inhibition worked out at 38%.

AGAACAACTCGCATCA (sugars k3 d10 k3, PS): the target mRNA inhibition amounted to 12%.

For the sequence CACTTTCCTTGCCCAA (sugars k3 d10 k3, PS), the target mRNA inhibition is 69% and 61%.

Take TACTGAAGAGCATTGG (sugars k3 d10 k3, PS): the target mRNA inhibition turned out to be 71%.

As for ATCAACAAAAGCCCAC (sugars k3 d10 k3, PS), the target mRNA inhibition was -12%.

For TGATCCCAACTCATCT (sugars k3 d10 k3, PS), the target mRNA inhibition was found to be 14%.

On to ACTTATCAATTCACCA (sugars k3 d10 k3, PS), for which the target mRNA inhibition worked out at 28%.

Take TTAGAGAAGAATCCCC (sugars k3 d10 k3, PS): the target mRNA inhibition turned out to be 31%.

GCATTCTAATAGCAGC (sugars k3 d10 k3, PS): the target mRNA inhibition was 10% and 21%.

In the case of GATTAAAGTGTGATAG (sugars k3 d10 k3, PS), the target mRNA inhibition was determined as 16%.

On to ATCAGTAGTAAGAATC (sugars k3 d10 k3, PS), for which the target mRNA inhibition was determined as 23%.

For TGAATTCAACTGGAAG (sugars k3 d10 k3, PS), the target mRNA inhibition was 36%.

Take GAAAGCGAGTTCAAGT (sugars k3 d10 k3, PS): the target mRNA inhibition is -1%.

For CTAAAGGCTTCAGTCC (sugars k3 d10 k3, PS), the target mRNA inhibition turned out to be 23%.

For GATCCAAGCTACTGGC (sugars k3 d10 k3, PS), the target mRNA inhibition worked out at 18%.

Consider GAACAGTACTGCATTT (sugars k3 d10 k3, PS), for which the target mRNA inhibition was 28%.

CCTTCGGTGCCTTTAG (sugars k3 d10 k3, PS): the target mRNA inhibition was 12%.

For the sequence CAAACGAAACATTGGC (sugars k3 d10 k3, PS), the target mRNA inhibition turned out to be 31%.

In the case of AAGAGATACCTGTCTG (sugars k3 d10 k3, PS), the target mRNA inhibition was 22%.

Turning to CTGATTATCCTGATAT (sugars k3 d10 k3, PS), the target mRNA inhibition worked out at 33%.

Consider TTAAATGACGCAATTC (sugars k3 d10 k3, PS), for which the target mRNA inhibition is 4%.

In the case of ATGGCGGACTTTCTCC (sugars k3 d10 k3, PS), the target mRNA inhibition turned out to be 29%.

As for TTCCTTATTTAGAGGG (sugars k3 d10 k3, PS), the target mRNA inhibition is 14%.

For TAGTTCTTCGGTTAAA (sugars k3 d10 k3, PS), the target mRNA inhibition stood at 6%.

Regarding ATCAAGGATGTATATA (sugars k3 d10 k3, PS), the target mRNA inhibition was determined as 0%.

In the case of TTTGAGTATGCTGATA (sugars k3 d10 k3, PS), the target mRNA inhibition amounted to 47%.

For the sequence ATCAGCTTCCGCTAAG (sugars k3 d10 k3, PS), the target mRNA inhibition amounted to 4%.

Regarding ACAAGATTCATGAGTA (sugars k3 d10 k3, PS), the target mRNA inhibition came out at 27%.

As to TTGAGGGACAGTAGGT (sugars k3 d10 k3, PS), the target mRNA inhibition is 21%.

For the sequence CTGCAGAGTTTGAGTG (sugars k3 d10 k3, PS), the target mRNA inhibition is -19%.

For the sequence AAGCACTCATATGCAA (sugars k3 d10 k3, PS), the target mRNA inhibition is -2%.

Take ATCAAGGCACTGATCA (sugars k3 d10 k3, PS): the target mRNA inhibition was 23%.

For ACCCCCACGCCAACAC (sugars k3 d10 k3, PS), the target mRNA inhibition is 23%.

With ACTGATTTTAAGGTTG (sugars k3 d10 k3, PS), the target mRNA inhibition is 26%.

For TCACCAAATTGCACTC (sugars k3 d10 k3, PS), the target mRNA inhibition came out at 21%.

Turning to GAGTTGAGGCAAGTCC (sugars k3 d10 k3, PS), the target mRNA inhibition stood at 52%.

In the case of TTACGAAAGTCCTTCA (sugars k3 d10 k3, PS), the target mRNA inhibition was determined as 28%.

For ACTTTAAGCCTTCGGT (sugars k3 d10 k3, PS), the target mRNA inhibition is 13%.

Consider CAGTCCTTTTAGTAGC (sugars k3 d10 k3, PS), for which the target mRNA inhibition came out at 57%.
